Earlier results on two molecules are cited in patent US20050026871A1 (priority 2002, published 2005).

The conditions of series [1]: reported in the literature; cited from earlier work.
For series [2] the following is noted: Physicians' Desk Reference, Rocaltrol Oral Solution; cited from earlier work.

In the case of `NCCCC(O)(P(=O)(O)O)P(=O)(O)O` [Alendronate, alendronate], in series [1], the “pH at which alendronate is best absorbed” value is on record as ~6.

With `C=C1/C(=C\C=C2/CCC[C@]3(C)[C@@H]([C@H](C)CCCC(C)(C)O)CC[C@@H]23)C[C@@H](O)C[C@@H]1O` [calcitriol, 1α,25-dihydroxyvitamin D3], the “time to peak serum concentrations after ingestion” value in series [2] was “three to six”.
